According to the OligoGym collection:
Several values for one entry are separate records, joined by “and”; a condition that tells them apart may be missing. Identical values can stand only once. After the bases stand the sugars from the 5' end (letter, count) and the backbone: PS all phosphorothioate, else s phosphorothioate and o phosphodiester by linkage. Methylation of C is not given here. e = 2'-O-(2-methoxyethyl) (MOE); k = constrained ethyl (cEt); d = 2'-deoxy (DNA)

How the values were obtained:
MALAT1 = details: ASO, A431, 0.005 µM
IRF4 = details: ASO

Row | Sequence | target mRNA inhibition (MALAT1) | other results
1 | AAAACTTATCTGCGGT (sugars k3 d10 k3, PS) | 54% and 41% | 
2 | AAAAGTAGTTCTTCGG (sugars k3 d10 k3, PS) | 18% | 
3 | AAACATTGCCTACCAC (sugars k3 d10 k3, PS) | -9% | 
4 | AAACCTGGGCTCCCGG (sugars k3 d10 k3, PS) | 20% | 
5 | AAAGATCGCCTTCAAA (sugars k3 d10 k3, PS) | 32% | 
6 | AAATACGACTGCTTAA (sugars k3 d10 k3, PS) | 22% | 
7 | AAATCATTGGGAGTTA (sugars k3 d10 k3, PS) | 24% | 
8 | AAATCCCCTAGGGAAG (sugars k3 d10 k3, PS) | -8% | 
9 | AAATCCCTTTACACCT (sugars k3 d10 k3, PS) | 23% | 
10 | AAATCCTGATCTGGTC (sugars k3 d10 k3, PS) | 27% | 
11 | AAATCGGAGCAGCACG (sugars k3 d10 k3, PS) | 16% | 
12 | AAATGGCGGACTTTCT (sugars k3 d10 k3, PS) | 17% | 
13 | AAATTACACCAGTCCT (sugars k3 d10 k3, PS) | 45% | 
14 | AAATTGCACTCGCTCC (sugars k3 d10 k3, PS) | 28% | 
15 | AACAACTCGCATCACC (sugars k3 d10 k3, PS) | 17% | 
16 | AACAAGTAAGCCCCAC (sugars k3 d10 k3, PS) | 11% | 
17 | AACAATTACCTAAACC (sugars k3 d10 k3, PS) | 16% | 
18 | AACAGGTCATCTATTC (sugars k3 d10 k3, PS) | 33% | 
19 | AACATATTGCCGACCT (sugars k3 d10 k3, PS) | 45% | 
20 | AACCACAACAATTTAG (sugars k3 d10 k3, PS) | 16% | 
21 | AACCCCAAGACCAAAC (sugars k3 d10 k3, PS) | 11% | 
22 | AACCTATTGACTATAT (sugars k3 d10 k3, PS) | 19% | 
23 | AACGAAACATTGGCAC (sugars k3 d10 k3, PS) | 48% | 

Row | Sequence | target mRNA inhibition (MALAT1) | other results
24 | AACGGGTCATCAAACA (sugars k3 d10 k3, PS) | -25% | 
25 | AACTAGCACCTGCAGA (sugars k3 d10 k3, PS) | 17% | 
26 | AACTTATCTGTTAACA (sugars k3 d10 k3, PS) | 30% | 
27 | AACTTGGAAGTTGATA (sugars k3 d10 k3, PS) | 19% | 
28 | AAGACTAAAGGCTTCA (sugars k3 d10 k3, PS) | 21% | 
29 | AAGAGCATTGGAGATC (sugars k3 d10 k3, PS) | 33% | 
30 | AAGCACTTATCCCTAA (sugars k3 d10 k3, PS) | 25% | 
31 | AAGCATTCCTTCGGAT (sugars k3 d10 k3, PS) | -8% | 
32 | AAGCATTGCCCTTCTA (sugars k3 d10 k3, PS) | 46% | 
33 | AAGCCCACCCTCTAAG (sugars k3 d10 k3, PS) | 21% | 
34 | AAGCCGCCTGCTACCT (sugars k3 d10 k3, PS) | -16% | 
35 | AAGCTACAACAAGTAA (sugars k3 d10 k3, PS) | 10% | 
36 | AAGGCTCCATGGTTGT (sugars k3 d10 k3, PS) | 32% | 
37 | AAGTAGACCAACTAAG (sugars k3 d10 k3, PS) | -22% | 
38 | AAGTATTACTCTAATC (sugars k3 d10 k3, PS) | 9% | 
39 | AAGTGCTCACAAGGCA (sugars k3 d10 k3, PS) | -16% | 
40 | AAGTGGTTGCCCGCTT (sugars k3 d10 k3, PS) | 22% | 
41 | AATACTTCATTACCCC (sugars k3 d10 k3, PS) | 45% | 
42 | AATCACTACTCCAAGC (sugars k3 d10 k3, PS) | 29% | 
43 | AATCATACTCCAGTCG (sugars k3 d10 k3, PS) | 35% | 
44 | AATCCCCCCCAAGATT (sugars k3 d10 k3, PS) | -5% | 
45 | AATCCTGATCTGGTCC (sugars k3 d10 k3, PS) | 46% and 66% | 
46 | AATCGCACTGGCTCCT (sugars k3 d10 k3, PS) | 25% | 

Row | Sequence | target mRNA inhibition (MALAT1) | other results
47 | AATCGCCATGGAAAGC (sugars k3 d10 k3, PS) | -4% | 
48 | AATGACGCAATTCTCC (sugars k3 d10 k3, PS) | 21% | 
49 | AATGGTAGATTCCGTA (sugars k3 d10 k3, PS) | 47% | 
50 | AATTAATGCACTGGTA (sugars k3 d10 k3, PS) | 19% | 
51 | AATTACACCAGTCCTT (sugars k3 d10 k3, PS) | 42% | 
52 | AATTACCTAAACCCAC (sugars k3 d10 k3, PS) | 0% | 
53 | AATTGCACTCGCTCCT (sugars k3 d10 k3, PS) | 29% | 
54 | ACAAATACGACTGCTT (sugars k3 d10 k3, PS) | 16% | 
55 | ACAAGGCAAATCGCCA (sugars k3 d10 k3, PS) | 17% | 
56 | ACACCTTGAGTCATTT (sugars k3 d10 k3, PS) | 50% | 
57 | ACAGGAAGGCTCCATG (sugars k3 d10 k3, PS) | 25% | 
58 | ACATTAAGTTGGTAAT (sugars k3 d10 k3, PS) | 4% | 
59 | ACATTGCCTACCACTC (sugars k3 d10 k3, PS) | 16% | 
60 | ACCAAATCGCACTGGC (sugars k3 d10 k3, PS) | 3% | 
61 | ACCACTCGCTTTCCCT (sugars k3 d10 k3, PS) | 35% | 
62 | ACCCAGTGGCTCATAT (sugars k3 d10 k3, PS) | 16% | 
63 | ACCCCCGGAACTTTTA (sugars k3 d10 k3, PS) | 9% | 
64 | ACCGGAGCAGGAAGAA (sugars k3 d10 k3, PS) | 4% | 
65 | ACCTAAACCCACCCCA (sugars k3 d10 k3, PS) | -1% | 
66 | ACCTTAACATCTTGTT (sugars k3 d10 k3, PS) | 15% | 
67 | ACCTTCATCACCAAAT (sugars k3 d10 k3, PS) | 22% | 
68 | ACGAAAGTCCTTCACA (sugars k3 d10 k3, PS) | 11% | 
69 | ACGCAACTGAGCCCCA (sugars k3 d10 k3, PS) | -44% | 

Row | Sequence | target mRNA inhibition (MALAT1) | other results
70 | ACGCCTCAATCCCACA (sugars k3 d10 k3, PS) | 27% | 
71 | ACGGAAATTTTTCTAC (sugars k3 d10 k3, PS) | 4% | 
72 | ACGGCCCGCACGGAAA (sugars k3 d10 k3, PS) | 16% | 
73 | ACGGTTGAGAAGTGGC (sugars k3 d10 k3, PS) | 22% | 
74 | ACTAAACAATTACCTA (sugars k3 d10 k3, PS) | 9% | 
75 | ACTAAGCGAATGGCTT (sugars k3 d10 k3, PS) | -9% | 
76 | ACTACTCCAAGCATTG (sugars k3 d10 k3, PS) | 36% | 
77 | ACTAGCACCTGCAGAG (sugars k3 d10 k3, PS) | 23% | 
78 | ACTCAGAAGATGTTAT (sugars k3 d10 k3, PS) | 30% | 
79 | ACTCGCTTTCCCTGTG (sugars k3 d10 k3, PS) | 35% | 
80 | ACTCTAATCACTGTCA (sugars k3 d10 k3, PS) | 35% | 
81 | ACTCTGATCATAATCT (sugars k3 d10 k3, PS) | 35% | 
82 | ACTGAACTGTTTAAAC (sugars k3 d10 k3, PS) | 6% | 
83 | ACTGGATAAGTATTAT (sugars k3 d10 k3, PS) | 46% | 
84 | ACTTATCTGTTAACAG (sugars k3 d10 k3, PS) | 25% | 
85 | ACTTGGAAGTTGATAT (sugars k3 d10 k3, PS) | 4% | 
86 | ACTTTAAATTGGTAGC (sugars k3 d10 k3, PS) | 28% | 
87 | AGAACCACACACTACC (sugars k3 d10 k3, PS) | 23% | 
88 | AGACCAACCCCCAGTT (sugars k3 d10 k3, PS) | 0% | 
89 | AGACTAAAGGCTTCAG (sugars k3 d10 k3, PS) | 12% | 
90 | AGAGCTACTTAGCTGT (sugars k3 d10 k3, PS) | 16% | 
91 | AGAGGGAGTTGAGGCA (sugars k3 d10 k3, PS) | 40% | 
92 | AGATAATGTTCTCATC (sugars k3 d10 k3, PS) | 11% | 

Row | Sequence | target mRNA inhibition (MALAT1) | other results
93 | AGATATTGTGCTGTTA (sugars k3 d10 k3, PS) | 17% | 
94 | AGATCGCCTTCAAATT (sugars k3 d10 k3, PS) | 41% | 
95 | AGATGGACATTGCCTC (sugars k3 d10 k3, PS) | 48% | 
96 | TTGGTTGGCTGGTCTT (sugars kkdddddddddekeke, PS) |  | target mRNA inhibition (IRF4; MM.1R, 1 µM): 34%
97 | TTTAAAATATCGCCCA (sugars k3 d10 k3, PS) |  | target mRNA inhibition (IRF4; MM.1R, 1 µM): -1%
98 | TTTACTAACTGGCTTC (sugars k3 d10 k3, PS) |  | target mRNA inhibition (IRF4; SK-MEL-28, 4 µM): 45%
99 | TTTACTGTTACCGATG (sugars k3 d10 k3, PS) |  | target mRNA inhibition (IRF4; SK-MEL-28, 4 µM): 48%
100 | TTTATCATCCGAAAAG (sugars k3 d10 k3, PS) |  | target mRNA inhibition (IRF4; MM.1R, 1 µM): 7%
101 | TTTATGAGCTTCCACA (sugars k3 d10 k3, PS) |  | target mRNA inhibition (IRF4; SK-MEL-28, 4 µM): 54%
102 | TTTATGTTAGCCAATT (sugars k2 d9 e3 k2, PS) |  | target mRNA inhibition (IRF4; MM.1R, 1 µM): 3% and 21%
103 | TTTATGTTAGCCAATT (sugars k3 d10 k3, PS) |  | target mRNA inhibition (IRF4; MM.1R, 1 µM): 25% and 13%
104 | TTTATGTTAGCCAATT (sugars kdddddddddkekeke, PS) |  | target mRNA inhibition (IRF4; MM.1R, 1 µM): 5% and 14%
105 | TTTATGTTAGCCAATT (sugars kkddddddddddkeke, PS) |  | target mRNA inhibition (IRF4; MM.1R, 1 µM): 11% and -5%
106 | TTTCAAATCGACTGCC (sugars k3 d10 k3, PS) |  | target mRNA inhibition (IRF4; SK-MEL-28, 4 µM): 31%
107 | TTTCAACTTGTGACCC (sugars k3 d10 k3, PS) |  | target mRNA inhibition (IRF4; MM.1R, 1 µM): 1%
108 | TTTCAGGAGCTAGTTT (sugars k3 d10 k3, PS) |  | target mRNA inhibition (IRF4; MM.1R, 1 µM): 8%
109 | TTTCATAGCTAGTTCA (sugars k3 d10 k3, PS) |  | target mRNA inhibition (IRF4; SK-MEL-28, 4 µM): 56%
110 | TTTTAAGGCCCTGTCA (sugars k3 d10 k3, PS) |  | target mRNA inhibition (IRF4; SK-MEL-28, 4 µM): 18%
111 | TTTTAGTTCATACCCA (sugars k3 d10 k3, PS) |  | target mRNA inhibition (IRF4; SK-MEL-28, 4 µM): 52%
112 | TTTTTCCATATGACCC (sugars k3 d10 k3, PS) |  | target mRNA inhibition (IRF4; SK-MEL-28, 4 µM): 75%
